Test results: publication PMC8217170, “Phase Ib dose-escalation study of the hypoxia-modifier Myo-inositol trispyrophosphate in patients with hepatopancreatobiliary tumors” (Nature Communications, 2021)
“And” between values parts separate entries of the source, which are not always exact repeats. Equal entries are not always repeated.

Tests used:
[1] = tested on: target lesions of PDAC, CRLM, CCA and HCC; test: Morphological radiological response, MRI, RECIST 1.1; format: in vivo, human; design: key to RECIST1.1 response after ITPP / RECIST1.1 response after chemotherapy / RespITPP_Recist / RespChemo_Recist: CR = complete response; PR = partial response; SD = stable disease; PD = progressive disease; details: response after chemotherapy following ITPP, RECIST; per individual patient; cohort c1, tumor c2
Protocol: Radiological assessment, consisting of abdominal MRI and FDG-PET-CT, was performed before ITPP administration and after the 3-week treatment course. Where possible, radiological re-evaluation was performed after 3–6 cycles of chemotherapy. Radiological responses were evaluated according to the RECIST 1.1 criteria[56] for MRI and EORTC criteria[57] for FDG-PET-CT imaging.
Then first calculate the sum of diameters (DM) and SUV-activities of radiological target lesions before ITPP (sum_pre), after ITPP (sum_post) and after subsequent chemotherapy (sum_chemo) for assessment of morphological RECIST1.1 (diameter) and metabolical EORTC (SUV activiy) responses.
Patient 1 (dropout after only 2 infusions and subsequent death due to rapid oncological progression) is excluded for radiological assessment due to no follow up imaging available.
In a second step, we calculate percent changes (PC) of diameter and SUV activity between before ITPP, after ITPP and after chemotherapy.

CEA, AFP, CA19-9 = test: Circulatory tumor-specific markers before vs after ITPP; format: in vivo, human; details: for Tumor marker AFP / Tumor marker CEA: individual patients
Source text: Load the raw data of the tumor marker measurements, calculate fold changes (FC) and percentage changes comparing measurments per patient before and after ITPP treatment.

ANG1 = test: Serum angiogenesis marker, multiplex bead-based immunoassay (LEGENDplex); format: in vivo, human; design: ANG1: unit not given here; details: for ANG1: serum, duplicate wells
ANG2 = test: as above; format: in vivo, human; design: ANG2: unit not given here; details: for ANG2: serum, duplicate wells
EGF = test: as above; format: in vivo, human; design: EGF: unit not given here; details: for EGF: serum, duplicate wells
[2] = tested on: VEGFA, ANG1/2, EGF, PECAM1/CD31; test: Serum angiogenic markers overall, before vs after ITPP; format: in vivo, human
Protocol: Serum angiogenesis markers were quantified by multiplex bead-based immunoassays following provided instructions (LEGENDplex™, Biolegend, San Diego, CA/USA). For biochemical markers, the percentage change comparing before (day 1 0 h) with after (last day 9 h) ITPP treatment was calculated.

hepatocellular carcinoma = tested on: hepatocellular carcinoma; design: method as in ref 10 (supplementary references); details: syngeneic, orthotopic rat model of hepatocellular carcinoma; ref 10 (supplementary references); cited from earlier work
[3] = design: method as in unpublished data obtained from NormOxys; details: rats, once a week for 5 weeks; ref unpublished data obtained from NormOxys; cited from earlier work
[4] = design: method as in Swissmedic special application Nr. SBH12-1310; details: one cancer patient, monotherapy 5600 mg/m2 once a week for 5 weeks; ref Swissmedic special application Nr. SBH12-1310; cited from earlier work
[5] = of 22 patients with elevated markers, under ITPP
[6] = following ITPP treatment, 27 patients
[7] = Patient 25, Cohort 8, PDAC, Day 3 post
[8] = Patient 25, Cohort 8, PDAC, Day 9 post
[9] = Patient 26, Cohort 8, PDAC, Day 3 post
[10] = Patient 26, Cohort 8, PDAC, Day 9 post
[11] = Patient 27, Cohort 8, CCC, Day 3 post
[12] = Patient 27, Cohort 8, CCC, Day 9 post
[13] = Patient 28, Cohort 8, CRLM, Day 3 post
[14] = Patient 28, Cohort 8, CRLM, Day 9 post

O=P1(O)OC2C3OP(=O)(O)OP(=O)(O)OC3C3OP(=O)(O)OP(=O)(O)OC3C2OP(=O)(O)O1 (centres unmarked) [ITPP, Myo-inositol trispyrophosphate]
RespChemo_Recist [1]: PD and SD and PR | Patients with tumor markers not elevated (CEA, AFP, CA19-9; CEA, AFP, CA19-9): 5/27 | Tumor marker AFP (CEA, AFP, CA19-9; Day 1 pre (baseline before ITPP)): 1572 µg/L and 11.2 µg/L and 270600 µg/L | Tumor marker CEA (CEA, AFP, CA19-9; Day 1 pre (baseline before ITPP), ITPP cohort 2): 2.8 µg/L | Tumor marker CEA (CEA, AFP, CA19-9; Day 1 pre (baseline before ITPP), ITPP cohort 3): 169.8 µg/L | Tumor marker CEA (CEA, AFP, CA19-9; Day 1 pre (baseline before ITPP), ITPP cohort 6): 3.2 µg/L and 1 µg/L and 291.6 µg/L | Tumor marker CEA (CEA, AFP, CA19-9; Day 1 pre (baseline before ITPP), ITPP cohort 7): 2205 µg/L and 2068 µg/L | Tumor marker CEA (CEA, AFP, CA19-9; Day 1 pre (baseline before ITPP), ITPP cohort 8): 7058 µg/L | Tumor marker AFP (CEA, AFP, CA19-9; Day 3 post): 1167 µg/L and 11.2 µg/L | Tumor marker CEA (CEA, AFP, CA19-9; Day 3 post, ITPP cohort 2): 2.9 µg/L | Tumor marker CEA (CEA, AFP, CA19-9; Day 3 post, ITPP cohort 3): 165.1 µg/L | Tumor marker CEA (CEA, AFP, CA19-9; Day 3 post, ITPP cohort 6): 3.2 µg/L and 2.3 µg/L and 300.1 µg/L | Tumor marker CEA (CEA, AFP, CA19-9; Day 3 post, ITPP cohort 7): 2190 µg/L and 2209 µg/L | Tumor marker CEA (CEA, AFP, CA19-9; Day 3 post, ITPP cohort 8): 7145 µg/L | Tumor marker AFP (CEA, AFP, CA19-9; Day 9 post): 1017 µg/L and 5.1 µg/L and 204800 µg/L | Tumor marker CEA (CEA, AFP, CA19-9; Day 9 post, ITPP cohort 2): 2.9 µg/L | Tumor marker CEA (CEA, AFP, CA19-9; Day 9 post, ITPP cohort 3): 247.8 µg/L | Tumor marker CEA (CEA, AFP, CA19-9; Day 9 post, ITPP cohort 6): 4.6 µg/L and 1 µg/L and 451 µg/L | Tumor marker CEA (CEA, AFP, CA19-9; Day 9 post, ITPP cohort 7): 2055 µg/L and 3058 µg/L | Tumor marker CEA (CEA, AFP, CA19-9; Day 9 post, ITPP cohort 8): 7626 µg/L | Patients with a decrease in tumor marker levels (CEA, AFP, CA19-9; [5]): 11 | Patients with an increase in tumor marker levels (CEA, AFP, CA19-9; [5]): 11 | Share of patients with reduced ANG1 (ANG1; [6]): 51.9% | ANG1 (ANG1; [7]): 692.38 | ANG1 (ANG1; [8]): 719.05 and 765.98 | ANG1 (ANG1; [9]): 143.21 and 130.63 | ANG1 (ANG1; [10]): 207.7 and 218.53 | ANG1 (ANG1; [11]): 904.42 and 799.6 | ANG1 (ANG1; [12]): 835.71 and 800.95 | ANG1 (ANG1; [13]): 981.48 and 747.77 | ANG1 (ANG1; [14]): 618.86 and 532.8 | Share of patients with reduced ANG2 (ANG2; [6]): 59.3% | ANG2 (ANG2; [7]): 228.25 | ANG2 (ANG2; [8]): 251.99 and 267.93 | ANG2 (ANG2; [9]): 4.97 and 2.94 | ANG2 (ANG2; [10]): 13.32 and 15.98 | ANG2 (ANG2; [11]): 207.26 and 180.83 | ANG2 (ANG2; [12]): 218.06 and 212.68 | ANG2 (ANG2; [13]): 323.31 and 262.92 | ANG2 (ANG2; [14]): 200.18 and 179.44 | Share of patients with reduced EGF (EGF; [6]): 85.2% | EGF (EGF; [7]): 16.25 | EGF (EGF; [8]): 11.62 and 15.2 | EGF (EGF; [9]): 14.41 and 12.95 | EGF (EGF; [10]): 9.76 and 9.88 | EGF (EGF; [11]): 5.57 and 4.9 | EGF (EGF; [12]): 9.82 and 10.17 | EGF (EGF; [13]): 2.39 and 3.39 | EGF (EGF; [14]): 3.09 and 2.24 | Share of patients with decreases in angiogenic markers [2]: ~60% | Rats alive after 100 days (hepatocellular carcinoma): nine out of ten | Human equivalent dose-corrected NOAEL [3]: 15,000 mg/m2 | Effect of the drug on the disease [4]: No effect
